This is an account of results in ChEMBL document CHEMBL4261613, “Discovery of a potent orally bioavailable retinoic acid receptor-related orphan receptor-gamma-t (RORγt) inhibitor, S18-000003” (Bioorg Med Chem Lett, 2018).

For orientation: EC50 means the concentration that produces a half-maximal response. The IC50 is the concentration that gives 50% inhibition. As a reminder, the solubility (thermodynamic) is the concentration in solution at equilibrium with solid.

Values after ≈ are worked out from the molar mass of the structure shown.

For series [1], the target named is T1, Oxysterols receptor LXR-beta (Homo sapiens, UniProt P55055).
T1 sequence (P55055 whole entry): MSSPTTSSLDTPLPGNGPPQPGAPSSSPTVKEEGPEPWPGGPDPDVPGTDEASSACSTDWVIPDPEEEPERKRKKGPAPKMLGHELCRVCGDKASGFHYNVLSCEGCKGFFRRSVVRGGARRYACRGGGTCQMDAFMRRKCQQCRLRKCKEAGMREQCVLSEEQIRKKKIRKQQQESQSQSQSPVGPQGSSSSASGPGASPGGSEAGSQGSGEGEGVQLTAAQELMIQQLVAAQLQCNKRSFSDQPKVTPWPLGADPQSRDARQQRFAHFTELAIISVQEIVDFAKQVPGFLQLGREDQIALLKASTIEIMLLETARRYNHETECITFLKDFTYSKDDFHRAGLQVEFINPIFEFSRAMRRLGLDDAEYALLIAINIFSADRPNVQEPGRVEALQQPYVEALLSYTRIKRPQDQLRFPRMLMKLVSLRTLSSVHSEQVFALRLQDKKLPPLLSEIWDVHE
As to the kind of experiment: Transrepression of recombinant human GAL4-DBD fused LXRbeta LBD expressed in HEK293 cells after 20 hrs by luciferase reporter gene assay. Format: cell-based. (Reporter assays use an easily measured gene product as a stand-in for the process of interest.)

Series [2] deals with T2, Oxysterols receptor LXR-alpha (Homo sapiens, UniProt Q13133).
T2 sequence (Q13133 whole entry): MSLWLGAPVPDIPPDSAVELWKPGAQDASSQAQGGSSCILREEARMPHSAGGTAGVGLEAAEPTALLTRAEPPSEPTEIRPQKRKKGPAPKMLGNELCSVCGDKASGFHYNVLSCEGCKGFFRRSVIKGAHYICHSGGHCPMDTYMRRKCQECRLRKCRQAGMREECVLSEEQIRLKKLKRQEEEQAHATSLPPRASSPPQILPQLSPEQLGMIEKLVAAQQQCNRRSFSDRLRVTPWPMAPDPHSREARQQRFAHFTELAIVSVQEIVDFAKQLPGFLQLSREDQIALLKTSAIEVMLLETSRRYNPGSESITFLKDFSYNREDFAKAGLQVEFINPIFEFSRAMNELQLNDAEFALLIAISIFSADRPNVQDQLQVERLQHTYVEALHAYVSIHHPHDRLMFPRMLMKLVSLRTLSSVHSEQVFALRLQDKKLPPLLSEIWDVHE
The experiment in a line: Transrepression of recombinant human GAL4-DBD fused LXRalpha LBD expressed in HEK293 cells after 20 hrs by luciferase reporter gene assay. Format: cell-based.

The target in series [3] is T3, Nuclear receptor ROR-gamma (Homo sapiens, UniProt P51449).
T3 sequence (P51449 whole entry): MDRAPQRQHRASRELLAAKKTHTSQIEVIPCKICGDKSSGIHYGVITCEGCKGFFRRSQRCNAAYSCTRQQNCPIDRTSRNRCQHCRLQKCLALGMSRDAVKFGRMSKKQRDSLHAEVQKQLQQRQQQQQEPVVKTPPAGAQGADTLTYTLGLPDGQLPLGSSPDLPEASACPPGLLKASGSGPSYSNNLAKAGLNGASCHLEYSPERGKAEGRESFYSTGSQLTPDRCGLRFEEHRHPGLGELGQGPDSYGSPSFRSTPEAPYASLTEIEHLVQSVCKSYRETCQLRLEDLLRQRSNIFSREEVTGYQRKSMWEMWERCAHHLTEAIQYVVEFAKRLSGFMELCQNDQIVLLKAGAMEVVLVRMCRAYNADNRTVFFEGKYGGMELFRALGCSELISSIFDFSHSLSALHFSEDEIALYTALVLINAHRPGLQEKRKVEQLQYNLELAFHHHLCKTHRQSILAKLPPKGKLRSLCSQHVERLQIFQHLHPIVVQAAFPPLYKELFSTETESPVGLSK
The experiment in a line: Displacement of [3H]-Digoxin from recombinant human GST-fused RORgammat LBD after 1 to 4 hrs by scintillation counting method. (In general: Loss of bound radioactivity is the signal in a displacement assay; it reports binding, not function.)

Series [4] in a line: Solubility of the compound in NaCl/HCl buffer at pH 1.2 by shake-flask method. Format: physicochemical.
The target in series [5] is T3, Nuclear receptor ROR-gamma. As to the kind of experiment: (§1) Transrepression of recombinant human GAL4-DBD fused RORgammat LBD expressed in HEK293 cells after 20 hrs by luciferase reporter gene assay. Format: cell-based.
For series [6], the target named is T4, Nuclear receptor ROR-gamma (Homo sapiens) (UniProt P51449).
T4 sequence (whole entry): T3 sequence (P51449 whole entry)
Described as §1. It counts as cell-based.

Series [7] can be described thus: Solubility of the compound in KH2PO4/Na2HPO4 buffer at pH 6.8 by shake-flask method. It counts as physicochemical.
For series [8], the target named is T5, Nuclear receptor ROR-alpha (Homo sapiens, UniProt P35398).
T5 sequence (P35398 whole entry): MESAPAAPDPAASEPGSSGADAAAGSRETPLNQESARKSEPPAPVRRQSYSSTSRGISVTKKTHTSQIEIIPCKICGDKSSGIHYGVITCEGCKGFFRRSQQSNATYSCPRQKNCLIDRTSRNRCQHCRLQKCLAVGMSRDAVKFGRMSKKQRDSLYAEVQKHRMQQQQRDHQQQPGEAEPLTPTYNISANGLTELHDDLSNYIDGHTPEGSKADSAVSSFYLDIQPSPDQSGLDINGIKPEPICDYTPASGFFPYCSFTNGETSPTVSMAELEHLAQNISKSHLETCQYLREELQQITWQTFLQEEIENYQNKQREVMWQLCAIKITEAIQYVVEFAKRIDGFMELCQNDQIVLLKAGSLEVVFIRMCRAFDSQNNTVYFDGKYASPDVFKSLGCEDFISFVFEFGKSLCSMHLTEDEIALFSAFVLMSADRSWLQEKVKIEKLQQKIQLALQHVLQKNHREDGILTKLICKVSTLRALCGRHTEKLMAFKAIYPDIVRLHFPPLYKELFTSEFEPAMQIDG
The experiment in a line: Displacement of [3H]T0901317 from recombinant human GST-fused RORalpha LBD after 1 to 4 hrs by microbeta scintillation counting method.

Series [9] deals with T6, Nuclear receptor ROR-gamma (Mus musculus, UniProt P51450).
T6 sequence (P51450 whole entry): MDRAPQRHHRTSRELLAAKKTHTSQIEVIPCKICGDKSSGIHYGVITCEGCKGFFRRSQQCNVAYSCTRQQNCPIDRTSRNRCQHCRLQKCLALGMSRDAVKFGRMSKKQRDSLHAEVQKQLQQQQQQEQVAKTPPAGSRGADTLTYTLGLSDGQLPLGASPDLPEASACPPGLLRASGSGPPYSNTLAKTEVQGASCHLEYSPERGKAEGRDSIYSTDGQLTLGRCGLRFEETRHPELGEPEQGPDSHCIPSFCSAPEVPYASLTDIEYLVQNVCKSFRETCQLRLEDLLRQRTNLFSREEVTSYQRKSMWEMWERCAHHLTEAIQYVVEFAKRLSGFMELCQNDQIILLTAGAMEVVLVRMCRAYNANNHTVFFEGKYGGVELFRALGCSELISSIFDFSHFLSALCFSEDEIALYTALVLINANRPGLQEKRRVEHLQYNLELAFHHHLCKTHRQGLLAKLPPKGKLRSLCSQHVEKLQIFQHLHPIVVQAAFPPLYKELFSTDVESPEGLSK
As to the kind of experiment: Transrepression of RORgammat in anti-CD3/CD28 stimulated C57BL/6 mouse CD4-positive T cells assessed as suppression of T cell differentiation to Th17 cells by measuring reduction in IL-17A level after 4 days by ELISA.

A short description of series [10]: Stability in rat liver microsomes assessed as parent compound remaining after 2 hrs by LC-MS/MS analysis. Format: ADME, microsome. Conditions: read-out: Stability. (Liver microsomes are vesicles of endoplasmic reticulum, rich in cytochrome P450 enzymes.)
The nature of series [11]: Stability in human liver microsomes assessed as parent compound remaining after 2 hrs by LC-MS/MS analysis. Format: ADME, microsome. As to conditions: read-out: Stability.
Series [12] has as its target T7, Nuclear receptor ROR-gamma (Mus musculus) (UniProt P51450).
T7 sequence (whole entry): T6 sequence (P51450 whole entry)
The experiment in a line: (§2) Transrepression of recombinant mouse GAL4-DBD fused RORgammat LBD expressed in HEK293 cells after 20 hrs by luciferase reporter gene assay. Format: cell-based.

Series [13] has as its target T6, Nuclear receptor ROR-gamma. The description is as §2. It counts as cell-based.
In series [14] the target is T8, Nuclear receptor ROR-beta (Homo sapiens, UniProt Q92753).
T8 sequence (Q92753 whole entry): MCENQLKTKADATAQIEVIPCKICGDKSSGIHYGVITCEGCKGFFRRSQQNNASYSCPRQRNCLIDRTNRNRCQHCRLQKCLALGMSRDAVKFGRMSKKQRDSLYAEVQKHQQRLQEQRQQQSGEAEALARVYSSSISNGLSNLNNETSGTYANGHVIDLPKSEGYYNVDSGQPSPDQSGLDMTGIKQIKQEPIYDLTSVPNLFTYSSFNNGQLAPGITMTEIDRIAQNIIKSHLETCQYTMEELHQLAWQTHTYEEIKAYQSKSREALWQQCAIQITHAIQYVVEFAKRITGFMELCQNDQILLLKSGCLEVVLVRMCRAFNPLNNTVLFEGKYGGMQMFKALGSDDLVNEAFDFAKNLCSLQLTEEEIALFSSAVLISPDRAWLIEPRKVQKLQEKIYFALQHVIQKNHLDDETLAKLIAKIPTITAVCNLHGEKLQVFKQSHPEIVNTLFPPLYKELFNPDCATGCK
The experiment in a line: Transrepression of recombinant human GAL4-DBD fused RORbeta LBD expressed in HEK293 cells after 20 hrs by luciferase reporter gene assay. It counts as cell-based.

For `CCS(=O)(=O)c1ccc(CC(=O)Nc2ccc(C(C)(C)C(=O)Nc3ccc(F)cc3)cc2)cc1`, the EC50 in series [1] and in series [2] was > 30000 nM in each case. In addition, the IC50 in series [3] was < 30 nM; in series [5], 33 nM; in series [8] it was > 10000 nM; in [9], 1100 nM; in [13] it was 550 nM; in [14], > 10000 nM. Further, the thermodynamic solubility in series [4] was 39 µM (≈ 18.8 µg/mL); in series [7], 31 µM (≈ 15 µg/mL). The Efficacy in [6] is 93%; in [12], 78%. In addition, the values for the remaining at 2 h in series [10] and in series [11] were 70% and 75%, respectively.
